Among the data in BindingDB's records for doi:10.1016/s0960-894x(03)00584-5 (Schering-Plough Research Institute, 2003) are IC50 values, retold here.

The target in this assay is Hepatitis C virus NS3 protease (Hepatitis C virus). Kind of assay: Inhibitory activity evaluated in the HCV protease binding assay.

Compound `O=C1OC[C@H]2O[C@@H](Oc3cc(O)c4c(c3)OC(c3ccccc3)CC4=O)[C@H](O)[C@@H](O)[C@@H]2OC(=O)c2cc(O)c(O)c(O)c2-c2c1cc(O)c(O)c2O` (stereo partly specified) [2,3,4,5,6,7,14,15-octahydroxy-13-(5-hydroxy-4-oxo-2-phenyl-3,4-dihydro-2H-7-chromenyloxy)-9,11,11a,13,14,15,15a,17-octahydrodibenzo[g,i]pyrano[3,2-b][1,5]dioxacycloundecine-9,17-dione] returned an IC50 of 2800 nM.

By IC50 is commonly meant the concentration that inhibits the measured activity by half. A low value points to inhibition by little substance.
